Test results as given in patent publication US20070270382A1, “Composition for Protecting Skin” (priority 2003, published 2007).

Assays:
[1] = test system: hairless mice; assay: Photoaging inhibitory effect of sphingomyelin (animal test, UV irradiation); type: in vivo
[2] = test system: skin wrinkles; assay: Skin wrinkle improving effect: wrinkles adjacent to eyes observed using a Charm View; type: in vivo, human; conditions: four persons having a weak skin barrier function; before and after taking sphingomyelin
Procedure: A capsule containing sphingomyelin 50 mg, phosphatidylserine 10 mg and gamma-linoleic acid 12.5 mg was used as a test material. Two capsules per one time were taken two times (morning and evening) a day. That is, four capsules were taken per a day and a medication period was three weeks. […] Four persons having a weak skin barrier function of the 21 examinees were selected and their skin states were measured before and after taking sphingomyelin.

[3] = test system: skin barrier; assay: Skin barrier function improving effect: TEWL repair after tape stripping, before and after taking sphingomyelin; type: in vivo, human; conditions: for difference in TEWL, taking vs not-taking sphingomyelin (in words): 2 and 4 days
Procedure: In this Example, a person's sebum film was artificially injured to increase an amount of water loss. After that, it was confirmed that there was a difference of repair degrees of water loss before and after taking sphingomyelin. It was also confirmed that how much skin wrinkles due to the water loss were improved by taking sphingomyelin. A capsule containing sphingomyelin 50 mg, phosphatidylserine 10 mg and gamma-linoleic acid 12.5 mg was used as a test material. Two capsules per one time were taken two times (morning and evening) a day. That is, four capsules were taken per a day and a medication period was three weeks. Tests were carried out for 18 males and 3 females and the testing method was as follows. An amount of water loss of skin was measured for an inner region of an arm using a TEWL meter TM210. A skin wound was induced by stripping off corneum with a tape many times and increasing a TEWL value (normally, around 6˜10) to 30 or more. In other words, after inducing an injury of a skin barrier using a tape, repair aspects of TEWL values in the injured region before and after taking sphingomyelin were compared and thus a skin barrier restoring effect of sphingomyeling was confirmed. Skin barrier function in a normal state was checked by measuring TEWL in a forearm from 21 persons. A TEWL value was increased to 30 or more after tape stripping and then TEWL was measured every other day. TEWL in a normal state was measured together with a measurement of TEWL in an injured region because TEWL in a normal state can be different according to conditions of temperature, humidity and weather, etc. Meanwhile, a same test was carried out to measure a medication effect of sphingomyelin and TEWL of skin was measured while taking sphingomyelin two times a day.

Sphingomyelin
state of skin (photographs, FIGS. 2 to 4) ([1]; UV irradiation+SM application vs UV only or UV+Vehicle, after completion of the test): the skin was extremely injured, compared to the case that the substrate containing sphingomyelin was applied after UV irradiation | skin barrier function (FIG. 1) ([1]; UV irradiation+SM application, 0.5% in 1,3-butyleneglycol/distilled water/ethanol 5:3:2, UV three times per week for three months, vs UV only or UV+Vehicle): the skin barrier was not easily damaged and remained in a level of the early stage of the test | skin barrier function (FIG. 1) ([1]; UV irradiation+SM oral administration): skin barrier protecting effect of sphingomyelin against ultraviolet was exhibited | skin histological test (FIG. 5): epidermis and dermis ([1]; sphingomyelin applied after UV irradiation vs only UV irradiation): the epidermis and dermis thereof were similar to those of at the early stage of the test | wrinkle improving effect (FIG. 14) [2]: had a wrinkle improving effect | difference in TEWL, taking vs not-taking sphingomyelin (in words) ([3]; 21 persons (Table 3)): no significant difference | difference in TEWL, taking vs not-taking sphingomyelin (in words) ([3]; weak skin barrier function (Table 5)): no significant difference | difference of TEWL decreases, taking vs not-taking sphingomyelin (in words) ([3]; 6 days, weak skin barrier function (Table 5)): significant difference of TEWL decreases | % TEWL, taking sphingomyelin ([3]; day 0, 21 persons, capsule with sphingomyelin 50 mg, phosphatidylserine 10 mg, gamma-linoleic acid 12.5 mg, four capsules per day): 100 % TEWL | % TEWL, taking sphingomyelin ([3]; day 0, persons with weak skin barrier function (high TEWL in normal region)): 100 % TEWL | % TEWL, taking sphingomyelin ([3]; day 0, six examinees with relatively high decrease rate of TEWL): 100 % TEWL | % TEWL, taking sphingomyelin ([3]; day 2, 21 persons, oral capsules): 43.2 ± 11.5 % TEWL | % TEWL, taking sphingomyelin ([3]; day 2, persons with weak skin barrier function): 36.9 ± 18.9 % TEWL | % TEWL, taking sphingomyelin ([3]; day 2, six examinees with relatively high decrease rate of TEWL): 45.7 ± 10.7 % TEWL | % TEWL, taking sphingomyelin ([3]; day 4, 21 persons, oral capsules): 23.1 ± 8.1 % TEWL | % TEWL, taking sphingomyelin ([3]; day 4, persons with weak skin barrier function): 19.8 ± 8 % TEWL | % TEWL, taking sphingomyelin ([3]; day 4, six examinees with relatively high decrease rate of TEWL): 23.7 ± 7.5 % TEWL | % TEWL, taking sphingomyelin ([3]; day 6, 21 persons, oral capsules): 14.8 ± 7 % TEWL | % TEWL, taking sphingomyelin ([3]; day 6, persons with weak skin barrier function): 9.7 ± 5.8 % TEWL | % TEWL, taking sphingomyelin ([3]; day 6, six examinees with relatively high decrease rate of TEWL): 7.4 ± 4.3 % TEWL | difference in TEWL decrease, taking vs not-taking sphingomyelin (in words) ([3]; six days, 21 persons (FIG. 11), paired t-test): significant difference in a TEWL decrease
